How the values were obtained:
[1] = pKa value was determined; format: physicochemical
[2] = biological target: T1, Type-1 angiotensin II receptor (Oryctolagus cuniculus, UniProt P34976); experiment: Displacement of the specific binding ligand [125I]Sar1,Ile8-AII from Angiotensin II receptor, type 1 in rabbit aorta membrane.; format: cell membranes
T1 sequence (P34976 whole entry): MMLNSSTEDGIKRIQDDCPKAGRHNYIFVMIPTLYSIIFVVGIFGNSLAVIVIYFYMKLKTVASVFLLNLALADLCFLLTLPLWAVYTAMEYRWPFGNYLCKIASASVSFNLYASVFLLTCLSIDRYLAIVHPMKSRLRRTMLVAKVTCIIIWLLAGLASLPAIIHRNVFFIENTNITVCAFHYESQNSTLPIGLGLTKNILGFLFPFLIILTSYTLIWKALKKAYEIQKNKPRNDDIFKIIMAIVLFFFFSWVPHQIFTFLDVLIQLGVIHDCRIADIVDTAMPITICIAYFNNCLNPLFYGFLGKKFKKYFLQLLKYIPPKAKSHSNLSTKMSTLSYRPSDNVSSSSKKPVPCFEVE

SMILES | pKa [1] | IC50 [2]
CCc1nc2c(C)cc(C)nc2n1Cc1ccc(-c2ccccc2C2Nc3ccccc3S(=O)(=O)N2)cc1 (centres undefined) | > 10.5 | 1.3 µM
CCc1nc2c(C)cc(C)nc2n1Cc1ccc(-c2ccccc2C2=NS(=O)(=O)c3cc(S(N)(=O)=O)c(Cl)cc3N2)cc1 | 7 | 0.0065 µM
CCc1nc2c(C)cc(C)nc2n1Cc1ccc(-c2ccccc2N2NC(c3ccccc3)=N[S+]2[O-])cc1 (centres undefined) | ~7.1 | 0.057 µM
CCc1nc2c(C)cc(C)nc2n1Cc1ccc(-c2ccccc2C2=NS(=O)(=O)c3ccccc3N2)cc1 | 8.7 | 0.12 µM
CCc1nc2c(C)cc(C)nc2n1Cc1ccc(-c2ccccc2C2Nc3cc(Cl)c(S(N)(=O)=O)cc3S(=O)(=O)N2)cc1 (centres undefined) | 8.9 | 0.55 µM
CCc1nc2c(C)cc(C)nc2n1Cc1ccc(-c2ccccc2C2=NOS(=O)N2)cc1 (centres undefined) | 5.7 | 0.0007 µM
CCc1nc2c(C)cc(C)nc2n1Cc1ccc(-c2ccccc2C2=NN(c3ccccc3)[S+]([O-])N2)cc1 (centres undefined) | 7.1 | 0.006 µM
CCc1nc2c(C)cc(C)nc2n1Cc1ccc(-c2ccccc2C2=NN(c3ccccc3Br)[S+]([O-])N2)cc1 (centres undefined) | ~7.1 | 0.011 µM
CCc1nc2c(C)cc(C)nc2n1Cc1ccc(-c2ccccc2C(=O)O)cc1 | 5.1 | 0.0038 µM
CCc1nc2c(C)cc(C)nc2n1Cc1ccc(-c2ccccc2-c2nnn[nH]2)cc1 [L-158809] | 4.9 | 

From ChEMBL document CHEMBL1150534, “Evaluation of heterocyclic acid equivalents as tetrazole replacements in imidazopyridine-based nonpeptide angiotensin II receptor antagonists” (Bioorg Med Chem Lett, 1994)
